Test results published in patent US9777266B2, “Methods for efficient, expansive, user-defined DNA mutagenesis” (THE JOHNS HOPKINS UNIVERSITY, priority 2012, dated 2017).

What was measured:
[1] = test system: cells bearing wildtype TEM-1; test: MIC assay on Mueller Hinton agar, cells bearing TEM-1 without mutation (allele 'none'); type: cell-based, E. coli
Experimental: (§1) Selected single base mutations were re-introduced into TEM-1 by site-directed PFunkel mutagenesis on the 20 μL volume scale. The MIC for ampicillin and piperacillin of the mutants was assessed with and without 6 μg/mL tazobactam by spotting 10^4 CFU on Mueller-Hinton agar plates containing 50 μg/mL Spec, 300 μM IPTG, and √2-fold increments of either ampicillin or piperacillin. Plates were incubated at 37° C. for 12 hrs.

[2] = test system: cells bearing TEM-1 allele Y105N; test: MIC assay on Mueller Hinton agar, TEM-1 allele Y105N; type: cell-based, E. coli; details: replicates 1-3
Experimental: as §1

[3] = +tazobactam 6 μg/mL, replicates 1-3
[4] = −tazobactam, replicates 1-3, 10^4 CFU/spot, 37° C. for 12 hours

Structure (SMILES) | MIC ampicillin [1, 3] [µg/mL] | MIC ampicillin [1, 4] [µg/mL] | MIC ampicillin ([2]; +tazobactam 6 μg/mL) [µg/mL] | MIC ampicillin ([2]; −tazobactam) [µg/mL] | Piperacillin MIC [1, 3] [µg/mL] | Piperacillin MIC [1, 4] [µg/mL]
CC1(C)S[C@@H]2[C@H](NC(=O)[C@H](N)c3ccccc3)C(=O)N2[C@H]1C(=O)O [Ampicillin, ampicillin] | 22.6 | 8192 | 1448 | 5792 | – | –
CCN1CCN(C(=O)N[C@@H](C(=O)N[C@@H]2C(=O)N3[C@@H]2SC(C)(C)[C@@H]3C(=O)O)c2ccccc2)C(=O)C1=O [Piperacillin, piperacillin] | – | – | – | – | 1.4 | 2896
